Entries after “also recorded” stand apart in the source; their conditions may differ.
Legend:
X-MuLV = X-MuLV inactivation by detergent in neutralized mAb protein A eluate, remaining infectivity by TCID50 assay on PG-4 cells; format: cell-based, Xenotropic Murine Leukemia Virus; conditions: 16° C.
Protocol: The pH of various protein A eluates was adjusted to 7.0 with 1M Tris buffer. The pH adjusted eluate was then filtered through a 0.22 um filter. Various volumes of 5% stock solution of Mega-10, Tween 20, or Tween 80 were added to the filtered neutralized protein A eluates. This was done to prepare protein A eluates containing various concentrations of each detergent. X-MuLV was then spiked at a 1:20 ratio to the neutralized protein A eluate containing various concentrations of each detergent that had been pre-incubated at a 16° C. water bath prior to the virus spiking. After a thorough mixing, an aliquot of a sample was removed immediately and quenched with a diluent (McCoy's medium containing 3 μg/mL of polybrene) at 1:12 for Mega-10 or at 1:100 for Tween 20 and Tween 80 to stop the inactivation, and the sample was designated as a time-zero sample. The remaining spiked eluate was returned to the water bath and the samples were collected at the indicated time to evaluate the viral inactivation kinetics.
The remaining X-MuLV infectivity in the samples post-inactivation treatment was determined by a TCID50 assay that is an endpoint dilution assay to quantify the amount of virus required to produce a cytopathic effect in 50% of inoculated tissue culture cells. Virus titers were estimated using the Spearman-Karber method and reported as TCID50/mL with a calculated 95% confidence interval (CI). Briefly, a sufficient number of 96-well plates with PG-4 (feline S^+L^−, ATCC#CRL-2032) cells were prepared the day before starting the viral inactivation experiments and incubated overnight in a 37° C. humidified CO2 incubator. A set of ten 3.2 fold dilution of the diluted positive control (1:100) and viral inactivated samples were prepared in a dilution block. Each set of the 11 serial dilutions of the samples were inoculated correspondingly onto wells (100 μL per well) of the first 11 columns in a 96-well plate that had been pre-seeded with PG-4 cells. The 12th column in the same plate was inoculated with the corresponding diluent to serve as non-virus negative control. The positive control was prepared by spiking the filtered neutralized protein A eluate with X-MuLV at a 1:20 ratio. The inoculated plates were then incubated in a 37° C. humidified CO2 incubator for approximate 2 hours. A volume of 100 uL of 2× assay medium (92% McCoy's 5A medium, 4% FBS, 2% Penicillin/Streptomycin, 2% L-Glutamine) was added to each well of the plates at the end of incubation. The plates were then returned to the same incubator, and continued incubation for 6 days. Each well of the plates were scored under a microscope for the presence of cytopathic effect (CPE) and the results were recorded in a scoring sheet. Virus titers were then estimated using the Spearman-Karber method and reported as TCID50/mL with a calculated 95% confidence interval (CI).
To evaluate robustness of X-MuLV inactivation by Mega-10 in Protein A eluates of mAb1, X-MuLV was spiked at a 1:20 ratio into the neutralized mAb1 protein A eluate contain 0.1%, 0.2% and 0.3% of Mega-10. After a thorough mixing, an aliquot of sample was removed at 0, 2.5, 5, 10, and 30 minutes after incubation at 16° C. The remaining virus titer in the collected samples was determined by the TCID50 assay.

aquatic environment = conditions: cited from earlier work
[1] = 0.1% Mega-10, neutralized mAb1 protein A eluate pH 7.01, incubation 0 minutes
[2] = 0.1% Mega-10, neutralized mAb1 protein A eluate pH 7.01, incubation 2.5 minutes
[3] = 0.1% Mega-10, neutralized mAb1 protein A eluate pH 7.01, incubation 5.0 minutes
[4] = 0.1% Mega-10, neutralized mAb1 protein A eluate pH 7.01, incubation 10 minutes
[5] = 0.1% Mega-10, neutralized mAb1 protein A eluate pH 7.01, incubation 30 minutes
[6] = 0.1% Mega-10, neutralized mAb2 protein A eluate pH 7.01, incubation 0 minutes
[7] = 0.1% Mega-10, neutralized mAb2 protein A eluate pH 7.01, incubation 2.5 minutes
[8] = 0.1% Mega-10, neutralized mAb2 protein A eluate pH 7.01, incubation 5.0 minutes
[9] = 0.1% Mega-10, neutralized mAb2 protein A eluate pH 7.01, incubation 10 minutes
[10] = 0.1% Mega-10, neutralized mAb2 protein A eluate pH 7.01, incubation 30 minutes
[11] = 0.2% Mega-10, neutralized mAb1 protein A eluate pH 7.01, incubation 0 minutes
[12] = 0.2% Mega-10, neutralized mAb1 protein A eluate pH 7.01, incubation 5.0 minutes
[13] = 0.2% Mega-10, neutralized mAb1 protein A eluate pH 7.01, incubation 10 minutes
[14] = 0.2% Mega-10, neutralized mAb1 protein A eluate pH 7.01, incubation 30 minutes
[15] = 0.2% Mega-10, neutralized mAb2 protein A eluate pH 7.01, incubation 0 minutes
[16] = 0.2% Mega-10, neutralized mAb2 protein A eluate pH 7.01, incubation 2.5 minutes
[17] = 0.2% Mega-10, neutralized mAb2 protein A eluate pH 7.01, incubation 5.0 minutes
[18] = 0.2% Mega-10, neutralized mAb2 protein A eluate pH 7.01, incubation 10 minutes
[19] = 0.3% Mega-10, neutralized mAb1 protein A eluate pH 7.01, incubation 0 minutes
[20] = 0.3% Mega-10, neutralized mAb1 protein A eluate pH 7.01, incubation 5.0 minutes
[21] = 0.3% Mega-10, neutralized mAb1 protein A eluate pH 7.01, incubation 10 minutes
[22] = 0.3% Mega-10, neutralized mAb1 protein A eluate pH 7.01, incubation 30 minutes
[23] = 0.3% Mega-10, neutralized mAb2 protein A eluate pH 7.01, incubation 0 minutes
[24] = 0.3% Mega-10, neutralized mAb2 protein A eluate pH 7.01, incubation 5.0 minutes
[25] = 0.3% Mega-10, neutralized mAb2 protein A eluate pH 7.01, incubation 10 minutes
[26] = 0.3% Mega-10, neutralized mAb2 protein A eluate pH 7.01, incubation 30 minutes

## CCCCCCCCCC(=O)N(C)C[C@H](O)[C@@H](O)[C@H](O)[C@H](O)CO [Mega-10, N-Methylglucamide]
X-MuLV; 0.10% Mega 10 alone, neutralized mAb1 protein A eluate, 0 minutes (Table 2)
  LRF ± 95% CL: 0.33 ± 0.35
X-MuLV; 0.10% Mega 10 alone, neutralized mAb1 protein A eluate, 2.5 minutes (Table 2)
  LRF ± 95% CL: 0.33±0.29
X-MuLV; 0.10% Mega 10 alone, neutralized mAb1 protein A eluate, 2.5 minutes (Table 2), listed as Mega 10
  LRF ± 95% CL: 0.33 ± 0.29
X-MuLV; 0.10% Mega 10 alone, neutralized mAb1 protein A eluate, 5 minutes (Table 2)
  LRF ± 95% CL: 0.33 ± 0.32
X-MuLV; 0.10% Mega 10 alone, neutralized mAb1 protein A eluate, 10 minutes (Table 2)
  LRF ± 95% CL: 0.39 ± 0.36
X-MuLV; 0.10% Mega 10 alone, neutralized mAb1 protein A eluate, 30 minutes (Table 2)
  LRF ± 95% CL: 0.64 ± 0.33
X-MuLV; [1]
  LRF ± 95% CL: 0.26 ± 0.28
  Log10 TCID50/mL: 6.53 ± 0.20 Log10 TCID50/mL
X-MuLV; [2]
  LRF ± 95% CL: 0.38 ± 0.32
  Log10 TCID50/mL: 6.41 ± 0.26 Log10 TCID50/mL
X-MuLV; [3]
  LRF ± 95% CL: 0.38 ± 0.28
  Log10 TCID50/mL: 6.41 ± 0.21 Log10 TCID50/mL
X-MuLV; [4]
  LRF ± 95% CL: 0.38 ± 0.28
  Log10 TCID50/mL: 6.41 ± 0.20 Log10 TCID50/mL
X-MuLV; [5]
  LRF ± 95% CL: 0.38 ± 0.23
  Log10 TCID50/mL: 6.41 ± 0.12 Log10 TCID50/mL
X-MuLV; [6]
  LRF ± 95% CL: 0.36 ± 0.28
  Log10 TCID50/mL: 6.56 ± 0.22 Log10 TCID50/mL
X-MuLV; [7]
  LRF ± 95% CL: 0.36 ± 0.28
  Log10 TCID50/mL: 6.56 ± 0.22 Log10 TCID50/mL
X-MuLV; [8]
  LRF ± 95% CL: 0.36 ± 0.25
  Log10 TCID50/mL: 6.56 ± 0.18 Log10 TCID50/mL
X-MuLV; [9]
  LRF ± 95% CL: 0.29 ± 0.26
  Log10 TCID50/mL: 6.63 ± 0.19 Log10 TCID50/mL
X-MuLV; [10]
  LRF ± 95% CL: 0.36 ± 0.28
  Log10 TCID50/mL: 6.56 ± 0.22 Log10 TCID50/mL
X-MuLV; 0.15% Mega 10 alone, neutralized mAb2 protein A eluate, 0 minutes (Table 3)
  LRF ± 95% CL: 0.99 ± 0.30
X-MuLV; 0.15% Mega 10 alone, neutralized mAb2 protein A eluate, 2.5 minutes (Table 3)
  LRF ± 95% CL: 1.62 ± 0.30
X-MuLV; 0.15% Mega 10 alone, neutralized mAb2 protein A eluate, 5 minutes (Table 3)
  LRF ± 95% CL: 1.68±0.31
X-MuLV; 0.15% Mega 10 alone, neutralized mAb2 protein A eluate, 5 minutes (Table 3), listed as Mega 10
  LRF ± 95% CL: 1.68 ± 0.31
X-MuLV; 0.15% Mega 10 alone, neutralized mAb2 protein A eluate, 10 minutes (Table 3)
  LRF ± 95% CL: 1.94 ± 0.32
X-MuLV; 0.15% Mega 10 alone, neutralized mAb2 protein A eluate, 30 minutes (Table 3)
  LRF ± 95% CL: 1.94 ± 0.32
X-MuLV; [11]
  LRF ± 95% CL: 2.91 ± 0.32
  Log10 TCID50/mL: 3.88 ± 0.25 Log10 TCID50/mL
X-MuLV; 0.2% Mega-10, neutralized mAb1 protein A eluate pH 7.01, incubation 2.5 minutes
  Log10 TCID50/mL: ≤1.21 Log10 TCID50/mL
X-MuLV; [12]
  LRF ± 95% CL: ≥5.58 ± 0.19
  Log10 TCID50/mL: ≤1.21 Log10 TCID50/mL
X-MuLV; [13]
  LRF ± 95% CL: ≥5.58 ± 0.19
  Log10 TCID50/mL: ≤1.21 Log10 TCID50/mL
X-MuLV; [14]
  LRF ± 95% CL: ≥5.58 ± 0.19
  Log10 TCID50/mL: ≤1.21 Log10 TCID50/mL
X-MuLV; 0.2% Mega-10, neutralized mAb1 protein A eluate
  treatment time to inactivate X-MuLV to the level below the detection limit: 2.5 min
X-MuLV; [15]
  LRF ± 95% CL: 4.73 ± 0.46
  Log10 TCID50/mL: 2.19 ± 0.43 Log10 TCID50/mL
X-MuLV; [16]
  LRF ± 95% CL: 5.31±0.75
  Log10 TCID50/mL: 1.61 ± 0.73 Log10 TCID50/mL
X-MuLV; [17]
  LRF ± 95% CL: 5.31 ± 0.75
  Log10 TCID50/mL: 1.61 ± 0.73 Log10 TCID50/mL
X-MuLV; [18]
  LRF ± 95% CL: 5.50 ± 0.90
  Log10 TCID50/mL: 1.42 ± 0.88 Log10 TCID50/mL
X-MuLV; 0.2% Mega-10, neutralized mAb2 protein A eluate pH 7.01, incubation 30 minutes
  Log10 TCID50/mL: ≤1.11 ± 0.27 Log10 TCID50/mL
X-MuLV; [19]
  LRF ± 95% CL: 3.79 ± 0.33
  Log10 TCID50/mL: 3.00 ± 0.27 Log10 TCID50/mL
X-MuLV; 0.3% Mega-10, neutralized mAb1 protein A eluate pH 7.01, incubation 2.5 minutes
  Log10 TCID50/mL: ≤1.21 Log10 TCID50/mL
X-MuLV; [20]
  LRF ± 95% CL: ≥5.58 ± 0.19
  Log10 TCID50/mL: ≤1.21 Log10 TCID50/mL
X-MuLV; [21]
  LRF ± 95% CL: ≥5.58 ± 0.19
  Log10 TCID50/mL: ≤1.21 Log10 TCID50/mL
X-MuLV; [22]
  LRF ± 95% CL: ≥5.58 ± 0.19
  Log10 TCID50/mL: ≤1.21 Log10 TCID50/mL
X-MuLV; 0.3% Mega-10, neutralized mAb1 protein A eluate
  treatment time to inactivate X-MuLV to the level below the detection limit: 2.5 min
X-MuLV; [23]
  LRF ± 95% CL: 4.73 ± 0.46
  Log10 TCID50/mL: 2.19 ± 0.43 Log10 TCID50/mL
X-MuLV; 0.3% Mega-10, neutralized mAb2 protein A eluate pH 7.01, incubation 2.5 minutes
  Log10 TCID50/mL: ≤1.11 Log10 TCID50/mL
X-MuLV; [24]
  LRF ± 95% CL: ≥5.81 ± 0.18
  Log10 TCID50/mL: ≤1.11 Log10 TCID50/mL
X-MuLV; [25]
  LRF ± 95% CL: ≥5.81 ± 0.18
  Log10 TCID50/mL: ≤1.11 Log10 TCID50/mL
X-MuLV; [26]
  LRF ± 95% CL: ≥5.81 ± 0.18
  Log10 TCID50/mL: ≤1.11 Log10 TCID50/mL
X-MuLV; 0.3% Mega-10, neutralized mAb2 protein A eluate
  treatment time to inactivate X-MuLV to the level below detection: 2.5 min
Aquatic environment
  toxicity to the aquatic environment: without toxicity to the aquatic environment; also recorded: no toxicity to the aquatic environment

Source: US12123028B2, “Viral inactivation methods for continuous manufacturing of antibodies” (Bayer HealthCare LLC, priority 2018, dated 2024)
